In brackets after ≈: the same amount, converted by molar mass. Like-named read-outs stand apart in the source and are kept apart here.
Columns and labels:
S. aureus ATCC 25923 [1] = assay: Antibacterial activity, pre-exposure (planktonic cells and biofilm formation); type: cell-based, Staphylococcus aureus; details: for MIC / inhibition at 5 µM / inhibition at 10 µM / inhibition at 15 µM / inhibition at 25 µM: Staphylococcus aureus, ATCC25923; for inhibition at 5 µM / inhibition at 10 µM / inhibition at 15 µM / inhibition at 25 µM / Average inhibition %, biofilms viability / Average inhibition %, planktonic cells viability: pre-exposure, ± SD
Method in brief: (§1)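 For planktonic resazurin, 20 μM final was used: 3–10 min at RT for S. aureus and A. baumannii, 20 min at 37 °C for P. aeruginosa. Cultures had been co-incubated with compound for 18 h at 37 °C, 220 rpm. Biofilms were then assessed by resazurin and crystal violet.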

S. aureus ATCC 25923 [2] = assay: Antibacterial activity, post-exposure on preformed 18-h-old biofilms; type: cell-based, Staphylococcus aureus; details: ± SD; for inhibition at 25 µM / inhibition at 50 µM / inhibition at 100 µM / inhibition at 200 µM: Staphylococcus aureus; for inhibition at 25 µM: ATCC25923, 25 µM; for inhibition at 50 µM: ATCC25923, 50 µM; for inhibition at 100 µM: ATCC25923, 100 µM; for inhibition at 200 µM: ATCC25923, 200 µM
Method in brief: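 Compounds were applied to preformed 18-h biofilms after medium change and left 24 h. Read-outs: planktonic OD plus resazurin fluorescence (20 μM), biofilm metabolic activity by resazurin 30 min at 37 °C, then biomass by crystal violet absorbance at 595 nm after ethanol fixation.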

A. baumannii NCTC 13423 = assay: Antibacterial activity, pre-exposure; type: cell-based, Acinetobacter baumannii; details: for Average inhibition %, biofilms viability / Average inhibition %, planktonic cells viability / inhibition at 10 µM / inhibition at 15 µM / inhibition at 25 µM / inhibition at 50 µM: A. baumannii NCTC 13423, pre-exposure, ± SD; for inhibition at 10 µM / inhibition at 15 µM / inhibition at 25 µM / inhibition at 50 µM / MIC: Acinetobacter baumannii, NCTC13423
Method in brief: as §1

P. aeruginosa ATCC 9027 = assay: Antibacterial activity, pre-exposure; type: cell-based, Pseudomonas aeruginosa; details: for Average inhibition %, biofilms viability / Average inhibition %, planktonic cells viability / inhibition at 50 µM / inhibition at 100 µM / inhibition at 150 µM / inhibition at 200 µM: P. aeruginosa ATCC 9027, pre-exposure, ± SD; for MIC / inhibition at 50 µM / inhibition at 100 µM / inhibition at 150 µM / inhibition at 200 µM: Pseudomonas aeruginosa; for inhibition at 50 µM / inhibition at 100 µM / inhibition at 150 µM / inhibition at 200 µM: ATCC9027
Method in brief: as §1

[3] = 10 µM, read-out: Average inhibition %, biofilms biomass
[4] = 10 µM, read-out: Average inhibition %, planktonic cells turbidity
[5] = 15 µM, read-out: Average inhibition %, biofilms biomass
[6] = 15 µM, read-out: Average inhibition %, planktonic cells turbidity
[7] = 25 µM, read-out: Average inhibition %, biofilms biomass
[8] = 25 µM, read-out: Average inhibition %, planktonic cells turbidity
[9] = read-out: Average inhibition %, biofilms biomass
[10] = read-out: Average inhibition %, planktonic cells turbidity
[11] = 50 µM, read-out: Average inhibition %, biofilms biomass
[12] = 50 µM, read-out: Average inhibition %, planktonic cells turbidity

**Q.** What does the source list for `CCCCCCCCc1cccc(CCC(N)(CO)CO)c1` [Compound 43, 2-Amino-2-(3-octylphenethyl)propane-1,3-diol]?
**A.** MIC (S. aureus ATCC 25923 [1]; lowest concentration with no visible growth (>90% inhibition of turbidity and viability of planktonic cells), 18 h, read-out: MIC S. aureus ATCC 25923): 15 to 25 µM (≈ 4.61 to 7.69 µg/mL); inhibition at 5 µM (S. aureus ATCC 25923 [1]; 5 µM, read-out: Average inhibition %, biofilms biomass): 33.6 ± 16%; inhibition at 5 µM (S. aureus ATCC 25923 [1]; 5 µM, read-out: Average inhibition %, planktonic cells turbidity): 25.6 ± 36.8%; inhibition at 10 µM (S. aureus ATCC 25923 [1]; [3]): 29.2 ± 14.5%; inhibition at 10 µM (S. aureus ATCC 25923 [1]; [4]): 36.2 ± 26.1%; inhibition at 15 µM (S. aureus ATCC 25923 [1]; [5]): 66.4 ± 27.2%; inhibition at 15 µM (S. aureus ATCC 25923 [1]; [6]): 61.4 ± 37.8%; inhibition at 25 µM (S. aureus ATCC 25923 [1]; [7]): 92.2 ± 6.9%; inhibition at 25 µM (S. aureus ATCC 25923 [1]; [8]): 98.9 ± 0.6%; MIC (S. aureus ATCC 25923 [1]; read-out: MIC (S. aureus)): 15 to 25 µM (≈ 4.61 to 7.69 µg/mL); Average inhibition %, biofilms viability (S. aureus ATCC 25923 [1]; 5 µM): 17.4 ± 8.1%; Average inhibition %, planktonic cells viability (S. aureus ATCC 25923 [1]; 5 µM): 12.3 ± 21.4%; Average inhibition %, biofilms viability (S. aureus ATCC 25923 [1]; 10 µM): 29.1 ± 5.4%; Average inhibition %, planktonic cells viability (S. aureus ATCC 25923 [1]; 10 µM): 14.8 ± 15.3%; Average inhibition %, biofilms viability (S. aureus ATCC 25923 [1]; 15 µM): 52.5 ± 43.2%; Average inhibition %, planktonic cells viability (S. aureus ATCC 25923 [1]; 15 µM): 36.1 ± 55.2%; Average inhibition %, biofilms viability (S. aureus ATCC 25923 [1]; 25 µM): 99.7 ± 0%; Average inhibition %, planktonic cells viability (S. aureus ATCC 25923 [1]; 25 µM): 99.9 ± 0.2%; Average inhibition %, biofilms viability (S. aureus ATCC 25923 [2]; 25 µM): 14.4 ± 14%; Average inhibition %, planktonic cells viability (S. aureus ATCC 25923 [2]; 25 µM): 0 ± 0%; Average inhibition %, biofilms viability (S. aureus ATCC 25923 [2]; 50 µM): 23.1 ± 5.1%; Average inhibition %, planktonic cells viability (S. aureus ATCC 25923 [2]; 50 µM): 12.8 ± 18.3%; Average inhibition %, biofilms viability (S. aureus ATCC 25923 [2]; 100 µM): 35.4 ± 15.6%; Average inhibition %, planktonic cells viability (S. aureus ATCC 25923 [2]; 100 µM): 61.4 ± 27.6%; Average inhibition %, biofilms viability (S. aureus ATCC 25923 [2]; 200 µM): 75.7 ± 18.5%; Average inhibition %, planktonic cells viability (S. aureus ATCC 25923 [2]; 200 µM): 98 ± 3.3%; inhibition at 25 µM (S. aureus ATCC 25923 [2]; [9]): 38.4 ± 9.2%; inhibition at 25 µM (S. aureus ATCC 25923 [2]; [10]): 6.1 ± 8%; inhibition at 50 µM (S. aureus ATCC 25923 [2]; [9]): 50.1 ± 4.6%; inhibition at 50 µM (S. aureus ATCC 25923 [2]; [10]): 33.5 ± 18.7%; inhibition at 100 µM (S. aureus ATCC 25923 [2]; [9]): 64.7 ± 9.1%; inhibition at 100 µM (S. aureus ATCC 25923 [2]; [10]): 48.9 ± 21.5%; inhibition at 200 µM (S. aureus ATCC 25923 [2]; [9]): 79.9 ± 12%; inhibition at 200 µM (S. aureus ATCC 25923 [2]; [10]): 79.1 ± 6.3%; Average inhibition %, biofilms viability (A. baumannii NCTC 13423; 10 µM): 0.2 ± 0.4%; Average inhibition %, planktonic cells viability (A. baumannii NCTC 13423; 10 µM): 5.5 ± 0.6%; Average inhibition %, biofilms viability (A. baumannii NCTC 13423; 15 µM): 99.2 ± 1.1%; Average inhibition %, planktonic cells viability (A. baumannii NCTC 13423; 15 µM): 99.8 ± 0.1%; Average inhibition %, biofilms viability (A. baumannii NCTC 13423; 25 µM): 100 ± 1.1%; Average inhibition %, planktonic cells viability (A. baumannii NCTC 13423; 25 µM): 99.8 ± 0.2%; Average inhibition %, biofilms viability (A. baumannii NCTC 13423; 50 µM): 98.7 ± 2.5%; Average inhibition %, planktonic cells viability (A. baumannii NCTC 13423; 50 µM): 99.8 ± 0.1%; inhibition at 10 µM (A. baumannii NCTC 13423; [3]): 0.6 ± 1%; inhibition at 10 µM (A. baumannii NCTC 13423; [4]): 0%; inhibition at 15 µM (A. baumannii NCTC 13423; [5]): 76.9 ± 3.5%; inhibition at 15 µM (A. baumannii NCTC 13423; [6]): 99.1 ± 1.1%; inhibition at 25 µM (A. baumannii NCTC 13423; [7]): 81.7 ± 1%; inhibition at 25 µM (A. baumannii NCTC 13423; [8]): 99.1 ± 1%; inhibition at 50 µM (A. baumannii NCTC 13423; [11]): 79 ± 3.8%; inhibition at 50 µM (A. baumannii NCTC 13423; [12]): 98.3 ± 0.9%; MIC (A. baumannii NCTC 13423; pre-exposure, Inactive = no activity up to 50 μM, > = some inhibition but no MIC reached, read-out: MIC A. baumannii NCTC 13423): 15 µM (≈ 4.61 µg/mL); MIC (A. baumannii NCTC 13423; supplementary molecular formula strings sheet, read-out: MIC (A. baumannii)): 15 µM (≈ 4.61 µg/mL); Average inhibition %, biofilms viability (P. aeruginosa ATCC 9027; 50 µM): 53.1 ± 41.1%; Average inhibition %, planktonic cells viability (P. aeruginosa ATCC 9027; 50 µM): 98.1 ± 0.5%; Average inhibition %, biofilms viability (P. aeruginosa ATCC 9027; 100 µM): 99.2 ± 2%; Average inhibition %, planktonic cells viability (P. aeruginosa ATCC 9027; 100 µM): 99 ± 1.3%; Average inhibition %, biofilms viability (P. aeruginosa ATCC 9027; 150 µM): 99.9 ± 0.9%; Average inhibition %, planktonic cells viability (P. aeruginosa ATCC 9027; 150 µM): 99.4 ± 0.7%; Average inhibition %, biofilms viability (P. aeruginosa ATCC 9027; 200 µM): 100.3 ± 0.5%; Average inhibition %, planktonic cells viability (P. aeruginosa ATCC 9027; 200 µM): 99.9 ± 0.1%; MIC (P. aeruginosa ATCC 9027; ATCC9027, pre-exposure, Inactive = no activity up to 200 μM, > = some inhibition but no MIC reached, read-out: MIC P. aeruginosa ATCC 9027): 50 to 100 µM (≈ 15.4 to 30.7 µg/mL); MIC (P. aeruginosa ATCC 9027; ATCC9027, supplementary molecular formula strings sheet, read-out: MIC (P. aeruginosa)): 50 to 100 µM (≈ 15.4 to 30.7 µg/mL); inhibition at 50 µM (P. aeruginosa ATCC 9027; [11]): 52.1 ± 19.8%; inhibition at 50 µM (P. aeruginosa ATCC 9027; [12]): 94.5 ± 0.8%; inhibition at 100 µM (P. aeruginosa ATCC 9027; 100 µM, read-out: Average inhibition %, biofilms biomass): 82.4 ± 25.2%; inhibition at 100 µM (P. aeruginosa ATCC 9027; 100 µM, read-out: Average inhibition %, planktonic cells turbidity): 97.2 ± 2.5%; inhibition at 150 µM (P. aeruginosa ATCC 9027; 150 µM, read-out: Average inhibition %, biofilms biomass): 89.4 ± 13.3%; inhibition at 150 µM (P. aeruginosa ATCC 9027; 150 µM, read-out: Average inhibition %, planktonic cells turbidity): 96.9 ± 1.2%; inhibition at 200 µM (P. aeruginosa ATCC 9027; 200 µM, read-out: Average inhibition %, biofilms biomass): 94.3 ± 1.4%; inhibition at 200 µM (P. aeruginosa ATCC 9027; 200 µM, read-out: Average inhibition %, planktonic cells turbidity): 97.5 ± 0.3%

Source: paper PMC8296573, “Synthesis and Biological Evaluation of Fingolimod Derivatives as Antibacterial Agents” (ACS Omega, 2021)
